Where “and” joins values, the source holds several entries; their conditions need not be identical. Identical values can stand only once.
Key:
[1] = set-up: method as in PMID 25943824; details: active ingredients of TMYX with high R values; cited from earlier work
[2] = Stability of analytes in rat plasma QC samples under storage conditions; format: in vitro ADME; details: n=6, gallic acid, ononin, schisandrin, stilbene glycoside, liquiritigenin, rhein, verbascoside; for Measured Concentration, auto-sampler for 12 h: prepared rat plasma samples; for Measured Concentration, -70°C for 14 days / Measured Concentration, room temperature for 6 h / Measured Concentration, three freeze-thaw cycles: rat plasma
Description: Quality control (QC) samples at three concentrations (low, medium, and high concentration) were made up of appropriate mixed standard solutions with blank blood sample as calibration solutions to meet the required concentrations. All the solutions were kept at 4°C.
The stability of analytes in plasma samples was determined by analyzing QC samples of three concentration levels at different conditions: stored at autosampler for 12 h, at room temperature for 6 h, under three freeze-thaw cycles and stored at -70°C for 14 days. All stability studies were measured in six replicates.

[3] = Pharmacokinetic study in rats after oral administration of TMYX extract (HPLC-MS/MS of plasma); format: in vivo, Sprague–Dawley rats; details: rat plasma; for AUC(0-inf) / half-life / AUC / k el: male, Sprague-Dawley; for AUC: read-out: AUC (0-tn); for k el: read-out: K e (converted); for T max1: n=6, mean ± SD
Description: The HPLC-MS/MS system consists of an Agilent 1200 high-performance liquid chromatography coupled with an Aglient 6430 series triple quadrupole mass spectrometer with an electrospray ionization (ESI) source. The chromatographic separation was achieved on a CORTECS C18 column (4.6 mm × 150 mm, 2.7 μm), and the column temperature was kept at 30°C. Mobile phases which consisted of 0.1% formic acid in water (A) and acetonitrile (B) were used in the following gradient elution method: 0-10 min, 10%-85% B; 10-13 min, 85%-95% B; 13-19 min, 95%-95% B. The flow rate was set at 0.3 mL/min, and the injection volume was 10 μL. All data were analyzed by Mass Hunter workstation software (Agilent Technologies, USA).
The mass spectrometer was carried out in both positive and negative ionization multiple-reaction monitoring (MRM) mode. The source parameters were as follows: the capillary voltage set at 300 V for positive ionization mode and -300 V for negative ionization mode, the drying gas temperature was 320°C, the flow was 11 L/min, and nebulizing gas pressure was 30 psi.
The plasma (100 μL) was spiked with 20 μL of methanol, 20 μL of the IS (icariin, 1 μg/mL), and 20 μL of formic acid and then vortex-mixed. The mixture was extracted with 800 μL of ethyl acetate by vortex mixing for 5 min at room temperature. After centrifugation at 14,000 rpm for 10 min, the supernatant was collected to a clean tube and evaporated to dryness under a nitrogen stream. The residue was reconstituted in 50 μL of 50% methanol, vortexed for 5 min, and centrifuged at 14,000 rpm for 10 min. Finally, 10 μL supernatant was injected into the LC-MS/MS system for analysis.
Male Sprague–Dawley rats (230-250 g) were obtained from Beijing HFK Experimental Animal Technology Co., Ltd. The rats were maintained under the control environmental conditions and they fasted for 12 h with free access to water before the experiments. TMYX extracts were dissolved in CMC-Na and administrated orally to rats at 8.3 g/kg. The blood samples (200 μL) were collected from the rat fossa orbitalis vein at 0, 0.03, 0.083, 0.17, 0.25, 0.5, 1, 2, 4, 6, 8, 10, 12, 24, 36, and 48 h after oral administration to heparinized tubes. And then the blood samples were centrifuged at 7,000 rpm for 10 min to get the plasma sample immediately. Finally, the plasma obtained was stored at −70°C until analysis. Pharmacokinetic parameters were calculated by the computer program “Drug and Statistics 2.0” (DAS 2.0) (Medical College of Wannan, China).

[4] = high QC: spiked 2000 ng/mL glycyrrhizic acid, 1000 liquiritin, 200 emodin, 100 isoliquiritigenin
[5] = low QC: spiked 20 ng/mL glycyrrhizic acid, 10 liquiritin, 2 emodin, 1 isoliquiritigenin
[6] = medium QC: spiked 200 ng/mL glycyrrhizic acid, 100 liquiritin, 20 emodin, 10 isoliquiritigenin
[7] = oral TMYX extract 8.3 g/kg single dose, n=6
[8] = oral TMYX extract 8.3 g/kg single dose
[9] = second peak, oral TMYX extract 8.3 g/kg single dose, n=6

| Structure (SMILES) | Measured Concentration, auto-sampler for 12 h [2, 4] | Measured Concentration, auto-sampler for 12 h [2, 5] | Measured Concentration, auto-sampler for 12 h [2, 6] | Measured Concentration, -70°C for 14 days [2, 4] | Measured Concentration, room temperature for 6 h [2, 4] | Measured Concentration, three freeze-thaw cycles [2, 4] | Measured Concentration, -70°C for 14 days [2, 5] | Measured Concentration, room temperature for 6 h [2, 5] | Measured Concentration, three freeze-thaw cycles [2, 5] | Measured Concentration, -70°C for 14 days [2, 6] | Measured Concentration, room temperature for 6 h [2, 6] | Measured Concentration, three freeze-thaw cycles [2, 6] | AUC(0-inf) [3, 7] | half-life [3, 7] | AUC [3, 7] | k el [3, 7] | C max1 [3, 7] | T max1 [3, 8] | antiinflammatory effects [1] | further results |
| --- | --- | --- | --- | --- | --- | --- | --- | --- | --- | --- | --- | --- | --- | --- | --- | --- | --- | --- | --- | --- |
| COc1ccc(-c2coc3cc(O)ccc3c2=O)cc1 [formononetin] |  |  |  |  |  |  |  |  |  |  |  |  |  |  |  |  |  |  | exert antiinflammatory effects in a dose-dependent manner |  |
| O=C(O)c1cc(O)c(O)c(O)c1 [gallic acid] | 184.54 ± 2.46 ng/mL | 2.03 ± 0.05 ng/mL | 19.27 ± 0.35 ng/mL | 199.19 ± 1.80 ng/mL | 205.97 ± 2.14 ng/mL | 196.77 ± 1.09 ng/mL | 1.99 ± 0.04 ng/mL | 1.97 ± 0.03 ng/mL | 1.93 ± 0.04 ng/mL | 19.26 ± 0.22 ng/mL | 20.77 ± 1.09 ng/mL | 20.08 ± 0.51 ng/mL | 238 ± 173 ng·h/mL | 3.01 ± 1.35 h | 215 ± 137 ng·h/mL | 7.5e-05 s⁻¹ | 56.9 ± 42.8 ng/mL | 0.75 ± 0.67 h |  |  |
| COc1cc2c(c(OC)c1OC)-c1c3cc4c(c1OC[C@@H](C)[C@@](C)(O)C(=O)O[C@@H]2[C@@](C)(O)[C@@H](C)C3)OCO4 [gomisin D] |  |  |  |  |  |  |  |  |  |  |  |  |  |  |  |  |  |  | exert antiinflammatory effects in a dose-dependent manner |  |
| COc1ccc(-c2coc3cc(O[C@@H]4O[C@H](CO)[C@@H](O)[C@H](O)[C@H]4O)ccc3c2=O)cc1 [ononin] | 195.34 ± 4.30 ng/mL | 1.83 ± 0.01 ng/mL | 18.84 ± 0.62 ng/mL | 200.23 ± 3.89 ng/mL | 216.32 ± 0.91 ng/mL | 191.28 ± 2.36 ng/mL | 1.95 ± 0.01 ng/mL | 2.02 ± 0.03 ng/mL | 1.85 ± 0.01 ng/mL | 18.51 ± 0.15 ng/mL | 20.57 ± 0.26 ng/mL | 18.71 ± 0.26 ng/mL | 69.4 ± 28.5 ng·h/mL | 2.85 ± 1.4 h | 58.2 ± 20.2 ng·h/mL | 0.000103 s⁻¹ | 14.4 ± 6.8 ng/mL | 0.46 ± 0.10 h | exert antiinflammatory effects in a dose-dependent manner |  |
| C[C@@H]1O[C@@H](O[C@@H]2[C@@H](O)[C@H](OCCc3ccc(O)c(O)c3)O[C@H](CO)[C@H]2OC(=O)/C=C/c2ccc(O)c(O)c2)[C@H](O)[C@H](O)[C@H]1O [verbascoside] | 93.52 ± 0.27 ng/mL | 1.05 ± 0.02 ng/mL | 9.50 ± 0.04 ng/mL | 107.40 ± 1.47 ng/mL | 103.95 ± 1.33 ng/mL | 108.42 ± 1.17 ng/mL | 1.01 ± 0.02 ng/mL | 0.92 ± 0.01 ng/mL | 1.09 ± 0.01 ng/mL | 9.81 ± 0.22 ng/mL | 9.57 ± 0.21 ng/mL | 10.17 ± 0.90 ng/mL | 61 ± 29.8 ng·h/mL | 1.53 ± 0.67 h | 51.4 ± 29.8 ng·h/mL | 0.000156 s⁻¹ | 23.4 ± 8.7 ng/mL | 0.37 ± 0.18 h |  |  |

More lines, main results first:

| Measured Concentration, auto-sampler for 12 h [2, 4] | Measured Concentration, auto-sampler for 12 h [2, 5] | Measured Concentration, auto-sampler for 12 h [2, 6] | Measured Concentration, -70°C for 14 days [2, 4] | Measured Concentration, room temperature for 6 h [2, 4] | Measured Concentration, three freeze-thaw cycles [2, 4] | Measured Concentration, -70°C for 14 days [2, 5] | Measured Concentration, room temperature for 6 h [2, 5] | Measured Concentration, three freeze-thaw cycles [2, 5] | Measured Concentration, -70°C for 14 days [2, 6] | Measured Concentration, room temperature for 6 h [2, 6] | Measured Concentration, three freeze-thaw cycles [2, 6] | AUC(0-inf) [3, 7] | half-life [3, 7] | AUC [3, 7] | k el [3, 7] | C max1 [3, 7] | T max1 [3, 8] | Structure (SMILES) | antiinflammatory effects [1] | further results |
| --- | --- | --- | --- | --- | --- | --- | --- | --- | --- | --- | --- | --- | --- | --- | --- | --- | --- | --- | --- | --- |
| 97.47 ± 1.99 ng/mL | 1.00 ± 0.02 ng/mL | 9.60 ± 0.04 ng/mL | 100.74 ± 2.95 ng/mL | 106.11 ± 0.78 ng/mL | 100.58 ± 0.91 ng/mL | 0.89 ± 0.01 ng/mL | 0.99 ± 0.01 ng/mL | 0.89 ± 0.02 ng/mL | 8.62 ± 0.04 ng/mL | 10.86 ± 0.60 ng/mL | 8.69 ± 0.14 ng/mL | 436 ± 154 ng·h/mL | 13.5 ± 8.33 h | 410 ± 131 ng·h/mL | 1.94e-05 s⁻¹ | 41.6 ± 24.2 ng/mL | 0.28 h and 0.28 ± 0.11 h | O=C(/C=C/c1ccc(O)cc1)c1ccc(O)cc1O [isoliquiritigenin] |  | detection in vivo at 48 h ([3]; 48 h after oral TMYX extract 8.3 g/kg): can still be detected in vivo at 48 h; peaks in the mean plasma concentration-time profile ([3]; oral TMYX extract 8.3 g/kg): double peaks; C max2 [3, 9]: 24.9 ± 13.5 ng/mL; T max2 [3, 9]: 7.00 h and 7.00 ± 2.45 h |
| 869.12 ± 14.52 ng/mL | 10.26 ± 0.11 ng/mL | 108.02 ± 0.66 ng/mL | 1021.69 ± 19.98 ng/mL | 1076.07 ± 10.27 ng/mL | 952.89 ± 11.22 ng/mL | 10.04 ± 0.12 ng/mL | 9.85 ± 0.09 ng/mL | 9.26 ± 0.16 ng/mL | 105.05 ± 1.73 ng/mL | 108.97 ± 1.51 ng/mL | 109.67 ± 1.86 ng/mL | 651 ± 220 ng·h/mL | 2.16 ± 1.44 h | 637 ± 220 ng·h/mL | 0.000214 s⁻¹ | 199.9 ± 120.2 ng/mL | 0.50 ± 0.46 h | O=C1C[C@@H](c2ccc(O[C@@H]3O[C@H](CO)[C@@H](O)[C@H](O)[C@H]3O)cc2)Oc2cc(O)ccc21 [liquiritin] |  |  |
| 97.32 ± 1.05 ng/mL | 0.97 ± 0.01 ng/mL | 9.86 ± 0.09 ng/mL | 85.95 ± 0.39 ng/mL | 101.97 ± 1.07 ng/mL | 86.7 ± 1.33 ng/mL | 0.95 ± 0.05 ng/mL | 0.97 ± 0.02 ng/mL | 0.98 ± 0.03 ng/mL | 8.71 ± 0.11 ng/mL | 10.23 ± 0.04 ng/mL | 8.89 ± 0.08 ng/mL | 152 ± 61.3 ng·h/mL | 2.84 ± 2.13 h | 145 ± 52.6 ng·h/mL | 0.000156 s⁻¹ | 46.3 ± 15.6 ng/mL | 0.36 ± 0.31 h | O=C(O)c1cc(O)c2c(c1)C(=O)c1cccc(O)c1C2=O [rhein] |  |  |
